These results are taken from patent US20240366540A1, “MITOFUSIN INHIBITORS AND USES THEREOF” (Albert Einstein College of Medicine, priority 2021, published 2024).

For experiment [1], the system named is mitochondrial biogenesis markers. In words: Mitochondrial biogenesis markers by q-PCR. It is filed as cell-based. The method, then:
Analysis of mitochondrial biogenesis-related genes by q-PCR. Total RNA was extracted by using RNeasy Mini Kit (Qiagen) followed by cDNA synthesis using the SuperScript IV VILO Master Mix (Thermo Scientific), both performed according to the manufacturer's protocol. q-PCR was performed using the following primers: For the q-PCR reaction, Power SYBR Green master mix (Thermo Scientific) was used according to the manufacturer's instructions. […] Rpl39 was used as housekeeping gene and 2^−ΔΔCT method was applied to determine the relative mRNAs expression.

Experiment [2] deals with MEFs. Kind of experiment: Caspase-3/7 activation assay. The conditions noted are these: 6 hr, Caspase-Glo 3/7. It is filed as cell-based, mouse. How it is done: Caspase-3/7 activation assay. Cells (5×10^3 cells/well) were seeded in a 96-well white plate and treated with MASM7, MFI8. Caspase 3/7 activation was measured after 6 hr by addition of the Caspase-Glo 3/7 reagent according to the manufacturer's protocol (Promega). Luminescence was detected by a F200 PRO microplate reader (TECAN). Caspase assays were performed in at least triplicate and the data normalized to vehicle-treated control wells. Dilutions of MASM7 or MFI8 were performed using a TECAN D300e Digital Dispenser from 10 mM stocks.

In experiment [3] the test system is MEFs. In words: RNA-seq gene expression. It is filed as cell-based, mouse. The following applies: RNA-seq. From the text:
RNA-seq. Sequencing results were demultiplexed and converted to FASTQ format using Illumina bcl2fastq software. The sequencing reads were adapter and quality trimmed with Trimmomatic and then aligned to the mouse genome (build mm10/GRCm38) using the splice-aware STAR aligner. The featureCounts program was utilized to generate counts for each gene based on how many aligned reads overlap its exons. These counts were then normalized and used to test for differential expression using negative binomial generalized linear models implemented by the DESeq2 R package.

The subject of experiment [4] is MEFs. In words: Metabolomics (TCA cycle carboxylic acids, NAD, NADH). It counts as cell-based, mouse. How it is done: Metabolomics. […] Cells were harvested using a cell scraper and centrifuged at 1200 rpm in 4° C. for 3 min. Each cell pellet sample was suspended into 250 to 700 μL of 80% aqueous methanol in an Eppendorf tube. The samples were vortex mixed for 15 s and sonicated in an ice-water bath for 5 min, followed by centrifugal clarification at 15,000 rpm and 5° C. in an Eppendorf […] centrifuge. The clear supernatants were collected. A standard stock solution of TCA cycle carboxylic acids, NAD and NADH was prepared in 80% methanol as S1. This standard solution S1 was serially diluted 1 to 4 (v/v) with the same solvent to make standard solutions S2 to S10. 20 μL of each standard solution and an aliquot of the clear supernatant from each cell was mixed with 20 μL of an internal standard solution containing 9 ^13C- or deuterium labeled analogues of the TCA cycle carboxylic acids (except isocitric acid), 20 μL of 200 mM 3-NPH solution and 20 μL of 150 mM of EDC solution. The mixtures were allowed to react at 30° C. for 30 min. After reaction, 120 μL of water was added to each solution. 10 μL of the resultant solutions was injected into a C18 UPLC column to quantitate the TCA cycle carboxylic acids by UPLC-MRM/MS with (-) ion detection, according to the procedure we described in a publication.

The next experiment concerns MFN1 and MFN2. In words: MFN1 and MFN2 gene expression and protein levels. It counts as cell-based. How it is done:
Western blot. Western blots were performed from whole cell lysates (WCL) prepared in lysis buffer containing 50 mM Tris-HCl pH 7.5, 1% Triton X-100, 150 mM NaCl, 5 mM MgCl2, 1 mM EGTA and 10% glycerol in the presence of protease inhibitor cocktail (Roche).
Analysis of mitochondrial biogenesis-related genes by q-PCR. Total RNA was extracted by using RNeasy Mini Kit (Qiagen) followed by cDNA synthesis using the SuperScript IV VILO Master Mix (Thermo Scientific), both performed according to the manufacturer's protocol. q-PCR was performed using the following primers: […]
For the q-PCR reaction, Power SYBR Green master mix (Thermo Scientific) was used according to the manufacturer's instructions. Briefly, each reaction consisted of 10 ng cDNA, 5 μL Power SYBR Green master mix, 200 nM primers (forward and reverse), and RNase-free water up to 10 μL. q-PCR was performed on the ViiA 7 Real-Time PCR System (Thermo Scientific) with the following cycle parameter: 95° C. for 10 min, 40 cycles of 95° C. for 15 s, and 60° C. for 1 min. q-PCR products were analyzed by melting curves for unspecific products or primer dimer formation. Rpl39 was used as housekeeping gene and 2^−ΔΔCT method was applied to determine the relative mRNAs expression.

The next experiment has as its system mitochondrial biomass. Kind of experiment: Mitochondrial biomass (Tomm20 protein, mitotracker green intensity, mitochondrial to nuclear DNA ratio). It counts as cell-based. How it is done: Western blot. Western blots were performed from whole cell lysates (WCL) prepared in lysis buffer containing 50 mM Tris-HCl pH 7.5, 1% Triton X-100, 150 mM NaCl, 5 mM MgCl2, 1 mM EGTA and 10% glycerol in the presence of protease inhibitor cocktail (Roche). WCL were separated on a 4-12% NuPAGE MES gel (Invitrogen), transferred into a PVDF membrane, block for 1 hr and immunoblot with the corresponding anti-bodies. Determination of mtDNA to genomic DNA ratio by q-PCR. DNA was extracted using DNeasy Blood and Tissue kit (Qiagen) according to the manufacturer's protocol. q-PCR was used to determine the ratio of mitochondrial DNA (mtDNA) and genomic DNA (gn DNA). The following primers were used for q-PCR reaction: […]

The test system of experiment [5] is MEFs. In words: Mitochondrial aspect ratio (Mito AR), live cell imaging.
Method: Live cell imaging. MEFs were seeded on chamber slides (MatTek Corporation: 35 mm dishes, No. 1.5, 14 mm glass diameter) at ˜70% confluence. […] Images were taken with Leica SP5 inverted confocal microscope. Data were analyzed with Image J software. >200 mitochondria were measured per condition in mitochondrial aspect ratio.
Measurement of mitochondrial aspect ratio (Mito AR). Images that depict stained mitochondria with mitotracker green were analyzed using FIJI We measured for each mitochondrion its length and width. Then, we divided the length by the width for each mitochondrion to get its mitochondrial aspect ratio. >200 mitochondria were measured per treatment.
In experiment [6] the test system is MEFs. In words: Mitochondrial respiration in cellulo (OCR, Seahorse XF24). It is filed as cell-based, mouse. The following applies: WT MEFs; MASM7 1 μM or MFI8 20 μM, 6 hrs. The method, then:
Mitochondrial respiration in cellulo. Mitochondrial oxygen consumption rates (OCR) were assessed using a XF24 Analyzer (Seahorse Biosciences, Billerica MA, USA). In brief, 3×10^4 MEFs were cultured in a XF24 cell culture microplate containing DMEM supplemented with 10% fetal bovine serum. […] OCR was normalized to cell number or total protein content per well for each condition tested.

The next experiment deals with cells. In words: Cell viability assay (CellTiter-Glo). The following applies: 72 hours. It is filed as cell-based. The method, then: Cell viability assay. […] Cell viability was assayed after 72 hrs by addition of CellTiter-Glo reagent according to the manufacturer's protocol (Promega). Luminescence was measured using a […] microplate reader (TECAN). Viability assays were performed in at least triplicate and the data normalized to vehicle-treated control wells.

Experiment [7] concerns MEFs. Kind of experiment: DNA damage, yH2AX immunofluorescence in MEFs. The following applies: 6 h. It is filed as cell-based, mouse. The method, then: Immunofluorescent analysis and microscopy. […] After treatments, cells were washed with PBS and fixed with 4% PFA for 15 min. […] After incubation with primary antibodies, cells were washed with PBS and incubated with the appropriate mouse secondary antibody (ThermoFisher Scientific; A-11001) in the blocking solution. After PBS washes, coverslips were dipped in water and mounted on glass slides using Vectashield containing DAPI (Vector laboratories). […] Data were analyzed with ImageJ.

The test system of experiment [8] is MEFs. In words: Mitochondrial depolarization assay (TMRE membrane potential). It is filed as cell-based, mouse. The method, then:
Mitochondrial depolarization assay (mtΔΨ). MEFs (10^4 cells/well) were seeded in a 96-well black plate and treated with MASM7 or MFI8 for 6 hrs. Following treatments, cells were stained with 250 nM TMRE (Sigma; Cat. 87917) for 20 min at 37° C. Subsequently, cells were washed with thrice with PBS. Fluorescence intensity was detected by a M100 microplate reader (TECAN, Ex: 540 nm/Em: 579 nm).

[9] abbreviates: MFN1/MFN2 DKO MEFs reconstituted with WT MFN2.

In the case of `CC(Sc1nnc(C2CC2)n1-c1ccccc1)C(=O)Nc1sc2c(c1C(N)=O)CCC2` (stereo not shown) [MASM7, 2-(2-((5-cyclopropyl-4-phenyl-4H-1,2,4-triazol-3-yl)thio)propanamido)-5,6-dihydro-4H-cyclopenta[b]thiophene-3-carboxamide], the “gene expression levels of mitochondrial biogenesis markers” value in experiment [1] is reported as “no alteration”. In addition, in the experiment with MEFs [2], the caspase-3/7 activity result is reported as “no effect”. In the experiment with MEFs [3], the “gene expression of subunits of the respiratory complexes” value is “altered expression of selected genes of the respiratory complexes rather than inducing a consistent trend”. Besides, the “total NAD+/NADH ratio” value with MEFs [4] is given as “no effect on total NAD^+/NADH ratio”. Moreover, the “metabolites of the TCA cycle” value in the experiment on MEFs [4] (UPLC-MRM/MS) is “no significant effect in the majority of the metabolites of the TCA cycle”. In the experiment with MFN1 and MFN2, the “MFN1 and MFN2 gene expression and corresponding protein levels” value is given as “neither MASM7 nor MFI8 altered”. For the same compound, the “Tomm20 protein levels, mitotracker green intensity and mitochondrial to nuclear DNA ratio” value in the experiment on mitochondrial biomass was “neither MASM7 nor MFI8 altered”. Besides, the mitochondrial aspect ratio result is “not when reconstituted with D725A/L727A or L727A MFN2 mutants” in the experiment on MEFs [5] (MFN1/MFN2 DKO MEFs reconstituted with D725A/L727A or L727A MFN2 mutants) and “markedly increased mitochondrial aspect ratio” in the experiment on MEFs [5] (setting [9]). Moreover, the “respiration and mitochondrial ATP production (OCR)” value with MEFs [6] was “increased basal and maximal respiration and mitochondrial ATP production”. Further, the cellular viability result in the experiment on cells is “neither MFI8 nor MASM7 decreased cellular viability”. Besides, the “DNA damage (yH2AX foci)” value in the experiment with MEFs [7] (MFN1/MFN2 DKO MEFs) and in the experiment on MEFs [7] (WT MEFs) was “did not induce DNA damage in any of the cell lines” in each case. The “mitochondrial membrane potential (TMRE)” value with MEFs [8] (setting [9]) is given as “significantly increased mitochondrial membrane potential”; in the experiment with MEFs [8] (WT MEFs, 6 hrs) it was “concentration responsively increased mitochondrial membrane potential”. Also, the “compound-induced increase in mitochondrial membrane potential” value with MEFs [8] (co-treated with myxothiazol or rotenone) is given as “revoked”.
